# Reference: patent US8802597B2, “Herbicidal pyrimidines” (E I du Pont de Nemours and Company, priority 2003, dated 2014)
# Where two headings read alike, the source gives them in different places.
# Tests used:
# Assay in all cases: Test C pre/postemergence
# Type in all cases: in vivo
# kochia (Kochia scoparia) = conditions: Bassia scoparia, pre-emergence, Preemergence, read-out: Plant response rating, Kochia
# Summary of the method: (§1)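 Pre: seeds planted, sprayed same day. Post: 1- to 4-leaf plants (2–18 cm). Formulation: non-phytotoxic solvent + surfactant. Greenhouse 12–14 d; visual % control vs untreated, 0–100.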
# [1] = tested on: morningglory (Ipomoea coccinea); conditions: Ipomoea; for pest or weed control at 31 g/ha: 31 g ai/ha; for pest or weed control at 62 g/ha: 62 g ai/ha; for pest or weed control at 125 g/ha: 125 g ai/ha; for pest or weed control at 250 g/ha: 250 g ai/ha
# Summary of the method: as §1
# [2] = tested on: pigweed (Amaranthus retroflexus); conditions: Amaranthus retroflexus; for pest or weed control at 31 g/ha: 31 g ai/ha; for pest or weed control at 62 g/ha: 62 g ai/ha; for pest or weed control at 125 g/ha: 125 g ai/ha; for pest or weed control at 250 g/ha: 250 g ai/ha
# Summary of the method: as §1
# [3] = tested on: velvetleaf (Abutilon theophrasti); conditions: Abutilon theophrasti; for pest or weed control at 31 g/ha: 31 g ai/ha; for pest or weed control at 62 g/ha: 62 g ai/ha; for pest or weed control at 125 g/ha: 125 g ai/ha; for pest or weed control at 250 g/ha: 250 g ai/ha
# Summary of the method: as §1
# [4] = tested on: woolly cupgrass (Eriochloa villosa); conditions: Eriochloa villosa; for pest or weed control at 31 g/ha: 31 g ai/ha; for pest or weed control at 62 g/ha: 62 g ai/ha; for pest or weed control at 125 g/ha: 125 g ai/ha; for pest or weed control at 250 g/ha: 250 g ai/ha
# Summary of the method: as §1
# [5] = tested on: yellow nutsedge (Cyperus esculentus); conditions: Cyperus; for pest or weed control at 31 g/ha: 31 g ai/ha; for pest or weed control at 62 g/ha: 62 g ai/ha; for pest or weed control at 125 g/ha: 125 g ai/ha; for pest or weed control at 250 g/ha: 250 g ai/ha
# Summary of the method: as §1
# [6] = post-emergence, Postemergence, scale 0 to 100 (0 no effect, 100 complete control), read-out: Morningglory plant response rating
# [7] = pre-emergence, Preemergence, scale 0 to 100, 0 no effect, 100 complete control, read-out: Plant response rating, Morningglory
# [8] = pre-emergence, Preemergence, scale 0 to 100, read-out: Plant response rating, Morningglory
# [9] = post-emergence, Postemergence, scale 0 to 100 (0 no effect, 100 complete control), read-out: Pigweed plant response rating
# [10] = pre-emergence, Preemergence, scale 0 to 100, 0 no effect, 100 complete control, read-out: Plant response rating, Pigweed
# [11] = pre-emergence, Preemergence, scale 0 to 100, read-out: Plant response rating, Pigweed
# [12] = post-emergence, Postemergence, scale 0 to 100 (0 no effect, 100 complete control), read-out: Velvetleaf plant response rating
# [13] = pre-emergence, Preemergence, scale 0 to 100, 0 no effect, 100 complete control, read-out: Plant response rating, Velvetleaf
# [14] = pre-emergence, Preemergence, scale 0 to 100, read-out: Plant response rating, Velvetleaf
# [15] = post-emergence, Postemergence, scale 0 to 100 (0 no effect, 100 complete control), read-out: Cupgrass, Woolly plant response rating
# [16] = pre-emergence, Preemergence, scale 0 to 100, 0 no effect, 100 complete control, read-out: Plant response rating, Cupgrass, Woolly
# [17] = pre-emergence, Preemergence, scale 0 to 100, read-out: Plant response rating, Cupgrass, Woolly
# [18] = post-emergence, Postemergence, scale 0 to 100 (0 no effect, 100 complete control), read-out: Nutsedge, Yellow plant response rating
# [19] = pre-emergence, Preemergence, scale 0 to 100, 0 no effect, 100 complete control, read-out: Plant response rating, Nutsedge, Yellow
# [20] = pre-emergence, Preemergence, scale 0 to 100, read-out: Plant response rating, Nutsedge, Yellow
smiles,measurement,setting,value
COC(=O)c1nc(C(C)C)nc(N)c1Br [Compound 3],pest or weed control at 31 g/ha,"kochia (Kochia scoparia); 31 g ai/ha, scale 0 to 100, 0 no effect, 100 complete control",0%
same,pest or weed control at 62 g/ha,"kochia (Kochia scoparia); 62 g ai/ha, scale 0 to 100, 0 no effect, 100 complete control",0%
same,pest or weed control at 125 g/ha,"kochia (Kochia scoparia); 125 g ai/ha, scale 0 to 100",20%
same,pest or weed control at 250 g/ha,"kochia (Kochia scoparia); 250 g ai/ha, scale 0 to 100",30%
same,pest or weed control at 31 g/ha,"[1]; post-emergence, Postemergence, read-out: Plant response rating (scale of 0 to 100), Morningglory",45%
same,pest or weed control at 62 g/ha,[1]; [6],60%
same,pest or weed control at 125 g/ha,[1]; [6],65%
same,pest or weed control at 250 g/ha,"[1]; post-emergence, Postemergence, scale 0 to 100, read-out: Plant response rating, Morningglory",75%
same,pest or weed control at 31 g/ha,[1]; [7],0%
same,pest or weed control at 62 g/ha,[1]; [7],0%
same,pest or weed control at 125 g/ha,[1]; [8],20%
same,pest or weed control at 250 g/ha,[1]; [8],35%
same,pest or weed control at 31 g/ha,"[2]; post-emergence, Postemergence, read-out: Plant response rating (scale of 0 to 100), Pigweed",60%
same,pest or weed control at 62 g/ha,[2]; [9],65%
same,pest or weed control at 125 g/ha,[2]; [9],75%
same,pest or weed control at 250 g/ha,"[2]; post-emergence, Postemergence, scale 0 to 100, read-out: Plant response rating, Pigweed",80%
same,pest or weed control at 31 g/ha,[2]; [10],20%
same,pest or weed control at 62 g/ha,[2]; [10],50%
same,pest or weed control at 125 g/ha,[2]; [11],65%
same,pest or weed control at 250 g/ha,[2]; [11],80%
same,pest or weed control at 31 g/ha,"[3]; post-emergence, Postemergence, read-out: Plant response rating (scale of 0 to 100), Velvetleaf",25%
same,pest or weed control at 62 g/ha,[3]; [12],55%
same,pest or weed control at 125 g/ha,[3]; [12],55%
same,pest or weed control at 250 g/ha,"[3]; post-emergence, Postemergence, scale 0 to 100, read-out: Plant response rating, Velvetleaf",70%
same,pest or weed control at 31 g/ha,[3]; [13],0%
same,pest or weed control at 62 g/ha,[3]; [13],0%
same,pest or weed control at 125 g/ha,[3]; [14],20%
same,pest or weed control at 250 g/ha,[3]; [14],35%
same,pest or weed control at 31 g/ha,"[4]; post-emergence, Postemergence, read-out: Plant response rating (scale of 0 to 100), Cupgrass, Woolly",0%
same,pest or weed control at 62 g/ha,[4]; [15],0%
same,pest or weed control at 125 g/ha,[4]; [15],0%
same,pest or weed control at 250 g/ha,"[4]; post-emergence, Postemergence, scale 0 to 100, read-out: Plant response rating, Cupgrass, Woolly",0%
same,pest or weed control at 31 g/ha,[4]; [16],0%
same,pest or weed control at 62 g/ha,[4]; [16],0%
same,pest or weed control at 125 g/ha,[4]; [17],0%
same,pest or weed control at 250 g/ha,[4]; [17],0%
same,pest or weed control at 31 g/ha,"[5]; post-emergence, Postemergence, read-out: Plant response rating (scale of 0 to 100), Nutsedge, Yellow",0%
same,pest or weed control at 62 g/ha,[5]; [18],0%
same,pest or weed control at 125 g/ha,[5]; [18],0%
same,pest or weed control at 250 g/ha,"[5]; post-emergence, Postemergence, scale 0 to 100, read-out: Plant response rating, Nutsedge, Yellow",0%
same,pest or weed control at 31 g/ha,[5]; [19],0%
same,pest or weed control at 62 g/ha,[5]; [19],0%
same,pest or weed control at 125 g/ha,[5]; [20],0%
same,pest or weed control at 250 g/ha,[5]; [20],0%
